One assay concerns the target T1, human wild type C-Raf (Homo sapiens, UniProt P04049).
T1 construct: made in house
Put plainly: Enzymatic assay of C-Raf kinase activity (Raf/MEK1 ATPase, coupled PK/LDH, A340). It is filed as biochemical. The settings on record: read-out: Enzyme IC50, nM C-Raf. On the procedure: Test compounds are evaluated for their inhibitory activities against one or more of human wild type B-Raf, human wild type C-Raf, human B-Raf V600E, human B-Raf V600E+T529I or human B-Raf V600E+G468A. T529I is a threonine to isoleucine B-Raf gatekeeper mutation and G468A is a B-Raf secondary mutation at G1403C in exon 11. The enzymatic assays of B-Raf, C-Raf and B-Raf mutations evaluate a property of Raf and MEK1 complex, which in the presence of ATP, catalyzes an enhanced ATP hydrolysis (Rominger, et al, Arch. Biochem. Biophys. 2007, 464: 130-137; US Patent Publication No. 2006/0211073). The ADP formed is monitored by the well-known coupled PK/LDH (pyruvate kinase/lactate dehydrogenase) system in the form of NADH oxidation, which can be monitored and detected spectrophotometrically by absorbance at 340 nm (A340; for principal of the method see Schindler et al, Science, 2000, 289: 1938-1942). Raf activated MEK1 ATPase activity is a property shared by all forms of Raf proteins.
Test compounds are evaluated for their inhibitory activities against one or more of wild type B-Raf, wild type C-Raf, B-Raf V600E, B-Raf V600E+T529I and B-Raf V600E+G468A. T529I is a B-Raf gatekeeper mutation and G468A is a B-Raf secondary mutation. The enzymatic assays of B-Raf, C-Raf and B-Raf mutations evaluate a property of Raf and MEK1 complex, which in the presence of ATP, catalyzes an enhanced ATP hydrolysis (Rominger, et al, Arch. Biochem. Biophys. 2007, 464: 130-137). The ADP formed is monitored by the well-known coupled PK/LDH (pyruvate kinase/lactate dehydrogenase) system in the form of NADH oxidation, which can be monitored and detected by absorbance at 340 nm (A340; for principal of the method see Schindler et al, Science, 2000, 289: 1938-1942). Raf activated MEK1 ATPase activity is a property shared by all forms of Raf proteins. In the B-Raf wild type enzymatic assay, the reaction mixture contains 1.2 nM B-Raf, 30 nM MEK1, 1000 uM ATP, 3.5 units (per 100 ul) of PK, 5 units (per 100 ul) of LDH, 1 mM phosphoenol pyruvate (PEP), and 280 uM of NADH. In the C-Raf assay, the reaction mixture contains 0.6 nM C-Raf, 26 nM MEK1, 2000 uM ATP, and the same amount of PK, LDH, PEP and NADH as above. In the B-Raf V600E assay, the reaction mixture contains […] B-Raf V600E, 26 nM MEK1, 200 uM ATP and the same amount of PK, LDH, PEP and NADH as above. In the B-RafV600E+T529I assay, the reaction mixture contains 6.2 nM B-Raf V600E+T529I, 30 nM MEK1, 200 uM ATP and the same amount of PK, LDH, PEP and NADH as above. In the B-Raf V600E+G468A assay, the reaction mixture contains 3.5 nM B-Raf, 30 nM MEK1, 200 uM ATP and the same amount of PK, LDH, PEP and NADH as above. All assays are started by mixing the above mixture with test compound and monitoring at A340 continuously for approximately 5 hr. […] In the aforementioned assays, the enzyme constructs can be screened prior to or after cleavage of the N-terminal purification tag.

The target of a further assay is T2, human wild type c-KIT (Homo sapiens, UniProt P10721).
T2 construct: GST (N); made in house
T2 sequence (P10721 26-976): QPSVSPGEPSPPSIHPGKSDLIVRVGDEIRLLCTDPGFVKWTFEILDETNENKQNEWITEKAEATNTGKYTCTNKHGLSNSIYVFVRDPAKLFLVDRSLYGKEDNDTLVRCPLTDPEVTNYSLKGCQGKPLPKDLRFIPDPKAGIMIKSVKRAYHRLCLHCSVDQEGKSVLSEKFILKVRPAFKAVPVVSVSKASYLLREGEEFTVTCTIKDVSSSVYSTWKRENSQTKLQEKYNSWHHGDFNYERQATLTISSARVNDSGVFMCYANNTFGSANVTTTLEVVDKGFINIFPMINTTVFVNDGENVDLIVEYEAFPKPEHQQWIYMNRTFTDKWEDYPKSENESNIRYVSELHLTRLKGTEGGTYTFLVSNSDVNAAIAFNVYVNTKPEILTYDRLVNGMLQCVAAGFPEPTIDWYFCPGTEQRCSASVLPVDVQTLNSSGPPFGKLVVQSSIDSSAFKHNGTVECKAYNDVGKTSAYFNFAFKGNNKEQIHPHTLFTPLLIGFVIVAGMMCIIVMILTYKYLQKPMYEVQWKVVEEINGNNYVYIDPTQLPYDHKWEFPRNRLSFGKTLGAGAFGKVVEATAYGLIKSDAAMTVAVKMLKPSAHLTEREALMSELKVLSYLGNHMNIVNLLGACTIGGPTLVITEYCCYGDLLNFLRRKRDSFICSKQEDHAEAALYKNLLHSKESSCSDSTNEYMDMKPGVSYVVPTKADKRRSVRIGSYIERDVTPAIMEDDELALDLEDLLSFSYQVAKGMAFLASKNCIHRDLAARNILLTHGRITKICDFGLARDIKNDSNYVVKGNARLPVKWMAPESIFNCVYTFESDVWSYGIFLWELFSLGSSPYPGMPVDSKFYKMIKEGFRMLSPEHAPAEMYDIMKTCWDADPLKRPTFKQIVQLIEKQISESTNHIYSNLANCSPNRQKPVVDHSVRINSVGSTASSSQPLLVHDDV
Kind of assay: Enzymatic assay of c-Kit kinase activity (poly E4Y phosphorylation, coupled PK/LDH). Type of assay: biochemical. From the text: c-Kit is an important oncogene, and its overexpression and genetic mutations often occur in melanoma and gastrointestinal stromal tumor (GIST) patients. In the c-Kit enzymatic assay, the phosphorylation of poly E4Y by ATP catalyzed by human c-Kit is monitored spectrophotometrically. The ADP produced from the kinase reaction is coupled to pyruvate kinase/lactate dehydrogenase (PK/LDH) reactions where NAD is formed from pyruvate and NADH. NADH can be detected by absorbance at 340 nm, as described above for enzymatic assays of kinase activities of B-Raf, C-Raf and B-Raf mutations.
The assay reaction mixture includes 6 nM human wild type c-KIT, 1 mg/mL Poly (Glu,Tyr) (Sigma), 1 mM Phosphoenol-pyruvate, 280 μM NADH, 5 U/3.5 U (per 100 ul) Pyruvate Kinase/Lactate Dehydrogenase, 85 mM Tris, pH 7.5, 17 mM MgCl2, 0.0042% Triton® X-100, 0.005% BSA, 1% DMSO. Test compound is incubated with the reaction mixture for 0.5 hour before adding 200 μM ATP to start the reaction at 30° C.

The test system of a further assay is A375 cells. Put plainly: A375 cell proliferation assay (CellTiter-Blue/resazurin). Type of assay: cell-based. The settings on record: Homo sapiens, A-375, V600E mutation, read-out: Cell Proliferation Inhibition IC50, nM A375. On the procedure: A375 cells (catalog #CRL-1619) are obtained from the American Type Culture Collection (ATCC, Manassas, Va.). Briefly, cells are grown in DMEM High Glucose supplemented with 10% characterized fetal bovine serum (Invitrogen, Carlsbad, Calif.) and 1% Penicillin/Streptomycin/L-Glutamine at 37 degrees Celsius, 5% CO2, and 95% humidity. Cells are allowed to expand until reaching 70-95% confluency at which point they are subcultured or harvested for assay use. A serial dilution of test compound is dispensed into a 384-well black clear bottom plate in triplicate. Six hundred twenty-five cells are added per well in 50 μL complete growth medium in the 384-well plate. Plates are incubated for 67 hours at 37 degrees Celsius, 5% CO2, and 95% humidity. At the end of the incubation period, 10 μL of a 440 μM solution of resazurin (Sigma, St. Louis, Mo.) in PBS is added to each well of the plate and plates are incubated for an additional 5 hours at 37 degrees Celsius, 5% CO2, and 95% humidity. Plates are read on a Synergy2 reader (Biotek, Winooski, Vt.) using an excitation of 540 nm and an emission of 600 nm. Data is analyzed using Prism software (Graphpad, San Diego, Calif.) to calculate IC50 values.
The A375, HT-29, and Colo-205 cells (ATCC) harbor a V600E mutation.

The test system of the next assay is HCT-116 cells. Put plainly: HCT-116 cell proliferation assay (resazurin). It is filed as cell-based. The settings on record: Homo sapiens, K-Ras mutation B-Raf wild type, read-out: Cell Proliferation Inhibition IC50, nM HCT-116. On the technique in general: Resazurin is reduced to fluorescent resorufin, in cell work by metabolically active cells.

T1 sequence (P04049 whole entry): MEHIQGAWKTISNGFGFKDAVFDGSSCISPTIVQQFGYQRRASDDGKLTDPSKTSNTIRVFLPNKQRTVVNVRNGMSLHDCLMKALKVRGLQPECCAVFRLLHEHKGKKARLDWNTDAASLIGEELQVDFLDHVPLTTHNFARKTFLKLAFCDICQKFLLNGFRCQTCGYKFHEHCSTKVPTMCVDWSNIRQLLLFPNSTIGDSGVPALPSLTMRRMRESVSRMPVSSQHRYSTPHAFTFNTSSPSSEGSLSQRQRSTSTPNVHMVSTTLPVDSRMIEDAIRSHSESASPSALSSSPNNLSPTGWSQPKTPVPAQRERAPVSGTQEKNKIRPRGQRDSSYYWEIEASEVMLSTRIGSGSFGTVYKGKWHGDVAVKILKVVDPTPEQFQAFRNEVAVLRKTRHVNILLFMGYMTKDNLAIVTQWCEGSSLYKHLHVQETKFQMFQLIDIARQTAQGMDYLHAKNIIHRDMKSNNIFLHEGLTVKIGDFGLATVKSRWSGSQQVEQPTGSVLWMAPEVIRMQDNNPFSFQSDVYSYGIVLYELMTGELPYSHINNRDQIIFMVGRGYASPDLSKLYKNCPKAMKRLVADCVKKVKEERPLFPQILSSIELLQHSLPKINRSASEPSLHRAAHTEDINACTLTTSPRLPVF

As to `CNc1ncc2cc(-c3cc(NC(=O)NCCC(C)(C)OC)c(F)cc3C)c(C)nc2n1` [Example 14, 1-(2-Fluoro-4-methyl-5-(7-methyl-2-(methylamino)pyrido[2,3-d]pyrimidin-6-yl)phenyl)-3-(3-methoxy-3-methylbutyl)urea], the IC50 was less than 150 nM at human wild type C-Raf, less than 150 nM against human wild type c-KIT, 100 to 1000 nM with A375 cells and 100 to 1000 nM in the assay with HCT-116 cells.
For `CNc1ncc2cc(-c3cc(NC(=O)NCC(O)C(C)(C)C)c(F)cc3F)c(C)nc2n1` (stereo not drawn) [Example 11, 1-[2,4-Difluoro-5-(7-methyl-2-methylamino-pyrido[2,3-d]pyrimidin-6-yl)phenyl]-3-(2-hydroxy-3,3-dimethyl-butyl)urea], the IC50 on human wild type C-Raf was less than 150 nM; against human wild type c-KIT it was less than 150 nM; in the assay with A375 cells, 100 to 1000 nM; in the assay on HCT-116 cells, 1000 to 10000 nM.
Consider `CNc1ncc2cc(-c3cc(NC(=O)NCCC4(C)CC4)c(F)cc3C)c(C)nc2n1` [Example 24, 1-(2-Fluoro-4-methyl-5-(7-methyl-2-(methylamino)pyrido[2,3-d]pyrimidin-6-yl)phenyl)-3-(2-(1-methylcyclopropyl)ethyl)urea], for which the IC50 on human wild type C-Raf was less than 150 nM; at human wild type c-KIT, less than 150 nM; in the assay on A375 cells it was less than 100 nM; in the assay on HCT-116 cells, 100 to 1000 nM.
As for `Cc1cc(F)c(NC(=O)NCCC(C)(C)C)cc1-c1cc2cnc(NCCN3CCOCC3)nc2nc1C` [Example 21, 1-(3,3-Dimethylbutyl)-3-(2-fluoro-4-methyl-5-(7-methyl-2-((2-morpholinoethyl)amino)pyrido[2,3-d]pyrimidin-6-yl)phenyl)ure], the IC50 at human wild type C-Raf was less than 150 nM; against human wild type c-KIT it was less than 150 nM; in the assay with A375 cells, less than 100 nM; in the assay with HCT-116 cells it was 100 to 1000 nM.
On to `Cc1cc(F)c(NC(=O)NCCC(C)(C)C)cc1-c1cc2cnc(N)nc2nc1C` [Example 20, 1-(5-(2-Amino-7-methylpyrido[2,3-d]pyrimidin-6-yl)-2-fluoro-4-methylphenyl)-3-(3,3-dimethylbutyl)urea], for which the IC50 was less than 150 nM on human wild type C-Raf, less than 150 nM against human wild type c-KIT, less than 100 nM with A375 cells and 100 to 1000 nM in the assay on HCT-116 cells.
Turning to `CNc1ncc2cc(-c3ccc(F)c(NC(=O)NCCC(C)(C)C)c3)c(C)nc2n1` [Example 2, 1-(3,3-Dimethylbutyl)-3-(2-fluoro-5-(7-methyl-2-(methylamino)pyrido[2,3-d]pyrimidin-6-yl)phenyl)urea], the IC50 on human wild type C-Raf is less than 150 nM; at human wild type c-KIT it was less than 150 nM; with A375 cells, less than 100 nM; in the assay on HCT-116 cells, 100 to 1000 nM.
Take `CNc1ncc2cc(-c3cc(NC(=O)NCCC(C)(C)C)c(F)cc3F)cnc2n1` [Example 36, 1-(2,4-Difluoro-5-(2-(methylamino)pyrido[2,3-d]pyrimidin-6-yl)phenyl)-3-(3,3-dimethylbutyl)urea methanesulfonate]: the IC50 at human wild type C-Raf is less than 150 nM; at human wild type c-KIT, less than 150 nM; in the assay on A375 cells it was 1000 to 10000 nM; in the assay on HCT-116 cells it was 1000 to 10000 nM.
With `CNc1ncc2cc(-c3cc(NC(=O)NCC(O)C(C)(C)C)c(F)cc3C)cnc2n1` (stereo not drawn) [Example 8, 1-[2-Fluoro-4-methyl-5-(2-methylaminopyrido[2,3-d]pyrimidin-6-yl)phenyl]-3-(2-hydroxy-3,3-dimethyl-butyl)urea], the IC50 on human wild type C-Raf was less than 150 nM; against human wild type c-KIT, less than 150 nM; in the assay on A375 cells it was 100 to 1000 nM; with HCT-116 cells, 1000 to 10000 nM.
As for `CNc1ncc2cc(-c3cc(NC(=O)NCC4CC4(C)C)c(F)cc3C)cnc2n1` (stereo not drawn) [Example 9], the IC50 was less than 150 nM at human wild type C-Raf, less than 150 nM against human wild type c-KIT, 100 to 1000 nM in the assay on A375 cells and 1000 to 10000 nM in the assay on HCT-116 cells.
Turning to `Cc1cc(F)c(NC(=O)NCCC2(C)CC2)cc1-c1cc2cnc(N)nc2nc1C` [Example 23, 1-(5-(2-Amino-7-methylpyrido[2,3-d]pyrimidin-6-yl)-2-fluoro-4-methylphenyl)-3-(2-(1-methylcyclopropyl)ethyl)urea], the IC50 is less than 150 nM on human wild type C-Raf, less than 150 nM against human wild type c-KIT, 100 to 1000 nM in the assay on A375 cells and 100 to 1000 nM in the assay on HCT-116 cells.
As for `CNc1ncc2cc(-c3cc(NC(=O)NCCC(C)(C)C)c(F)cc3C)cnc2n1` [Example 35, 1-(3,3-Dimethylbutyl)-3-[2-fluoro-4-methyl-5-(2-methylaminopyrido[2,3-d]pyrimidin-6-yl)phenyl]urea], the IC50 on human wild type C-Raf was less than 150 nM; against human wild type c-KIT, less than 150 nM; in the assay with A375 cells, less than 100 nM; with HCT-116 cells it was 100 to 1000 nM.
Consider `Cc1cc(F)c(NC(=O)NCC(O)C(C)(C)C)cc1-c1cc2cnc(N)nc2nc1C` (stereo not drawn) [Example 10], for which the IC50 on human wild type C-Raf is less than 150 nM; against human wild type c-KIT, less than 150 nM; with A375 cells, 100 to 1000 nM; with HCT-116 cells, 1000 to 10000 nM.
Turning to `CNc1ncc2cc(-c3cc(NC(=O)NC[C@@H](O)C(C)(C)C)c(F)cc3C)cnc2n1` [Example 19, 1-[2-fluoro-4-methyl-5-(2-methylaminopyrido[2,3-d]pyrimidin-6-yl)phenyl]-3-[(2S)-2-hydroxy-3,3-dimethyl-butyl]urea], the figures for the IC50 on human wild type C-Raf, with A375 cells and in the assay on HCT-116 cells were less than 150 nM, 100 to 1000 nM and 1000 to 10000 nM, respectively.
Consider `CNc1ncc2cc(-c3cc(NC(=O)NC[C@H](O)C(C)(C)C)c(F)cc3C)cnc2n1` [Example 18, 1-[2-Fluoro-4-methyl-5-(2-methylaminopyrido[2,3-d]pyrimidin-6-yl)phenyl]-3-[(2R)-2-hydroxy-3,3-dimethyl-butyl]urea], for which the IC50 on human wild type C-Raf is less than 150 nM; with A375 cells, 100 to 1000 nM; with HCT-116 cells, 100 to 1000 nM.
